Experimental data from patent US11014895B2, “Heterocyclic urea compound, and drug composition and application thereof” (CHINA PHARMACEUTICAL UNIVERSITY, priority 2017, dated 2021).

Experiments:
[1] = target: IDO1 enzyme (Homo sapiens, UniProt P14902); test: Determination of biochemical activity of IDO1 enzyme (absorbance at 320 nm); conditions: room temperature, 3 hours
Experimental: (1) Method for Determining Biochemical Activity of IDO1 Enzyme
Firstly, 15 μl of buffer solution of sodium hydrogen phosphate (PH:7-8), 5 μl of reaction buffer solution containing a proper amount of IDO-1 enzyme and heterocyclic urea compound prepared by the invention were added into wells of a microplate, mixed evenly, and reacted at room temperature for 3 hours; then a light absorption value at 320 nm wavelength was detected by using Envision Multilabel Reader of PE company, an inhibition rate of the heterocyclic urea compound on the enzyme reaction was calculated according to an absorption ratio, and an IC50 value of the heterocyclic urea compound was calculated through analysis by GraphPad.

[2] = target: T1, IDO1 enzyme in the Hela cell (Homo sapiens, UniProt P14902); test: Cell activity: interferon γ-stimulated Hela cells, absorbance of supernatant at 480 nm; type: cell-based; conditions: interferon γ 100 ng/ml, 72 hours
T1 construct: endogenous in cells; host or cells: HeLa cells stimulated with interferon γ (100 ng/ml)
T1 sequence (P14902 whole entry): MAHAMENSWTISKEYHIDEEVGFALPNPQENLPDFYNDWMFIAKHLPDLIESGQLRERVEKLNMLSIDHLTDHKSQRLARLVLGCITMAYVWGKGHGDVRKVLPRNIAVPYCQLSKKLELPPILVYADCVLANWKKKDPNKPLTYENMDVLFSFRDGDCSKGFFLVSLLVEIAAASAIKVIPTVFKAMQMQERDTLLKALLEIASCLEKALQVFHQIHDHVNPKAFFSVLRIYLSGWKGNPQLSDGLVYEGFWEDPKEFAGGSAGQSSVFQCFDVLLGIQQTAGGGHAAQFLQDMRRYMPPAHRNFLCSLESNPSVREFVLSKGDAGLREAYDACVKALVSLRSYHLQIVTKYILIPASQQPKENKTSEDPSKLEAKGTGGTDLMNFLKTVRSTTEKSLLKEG
Experimental: (2) Method for Determining Cell Activity
Hela cells were cultured and passaged in a DMEM medium supplemented with antibiotics in a 37° C. CO2 incubator, inoculated into a 96-well plate for overnight culture, then 1 μl of heterocyclic urea compound with appropriate concentration was added to each well, and then 100 μl of interferon γ (final concentration was 100 ng/ml) was added. After the cells were continuously cultured for 72 hours, 70 μl of cell culture supernatant was added to a 96-well V-bottom plate, 5 μl of trichloroacetic acid (6.1 N) was added to each well, incubated at 50° C. for 30 min, then taken out and centrifuged at […] for 10 min. The above centrifuged supernatant was transferred to a 384-well microplate (20 μl/well), then 20 μl of 2% didimethylaminobenzaldehyde acetic acid solution was added to each well, shaken and mixed evenly, then photometric absorption was performed at 480 nm, and values were measured.

Chain of IDO1 enzyme (P14902 whole entry): as above

| IC50 [1] | IC50 [2] | Structure (SMILES) |
| --- | --- | --- |
| < 0.001 µM | < 0.001 µM | N=C(Nc1nonc1/C(=N/O)Nc1ccc(F)c(Br)c1)NC1CCNCC1 [Embodiment 148, (Z)-1-(4-(N-(3-bromo-4-fluorophenyl)-N′-hydroxyaminoiminomethyl)-1,2,5-oxadiazole-3-substituted)-3-(piperidine-4-substituted)guanidine] |
| 0.1 to 1 µM | 0.1 to 1 µM | O=C(Nc1ccoc1)Nc1nonc1/C(=N/O)Nc1ccc(F)c(Br)c1 [Embodiment 41, (Z)-1-(4-(N-(3-bromo-4-fluorophenyl)-N′-hydroxyaminoiminomethyl)-1,2,5-oxadiazole-3-substituted)-3-(furan-3-substituted)urea] |
| > 1 µM | > 1 µM | N=C(Nc1nonc1/C(=N/O)Nc1ccc(F)c(Br)c1)NC1CC1 [Embodiment 149, (Z)-1-(4-(N-(3-bromo-4-fluorophenyl)-N′-hydroxyaminoiminomethyl)-1,2,5-oxadiazole-3-substituted)-3-(cyclopropyl)guanidine] |
| 0.1 to 1 µM | 0.1 to 1 µM | O=C(Nc1cocc1/C(=N/O)Nc1ccc(F)c(Br)c1)NC1CCCCC1 [Embodiment 61, (Z)-1-(4-(N-(3-bromo-4-fluorophenyl)-N′-hydroxyaminoiminomethyl)-furan-3-substituted)-3-cyclohexylurea] |
| 0.1 to 1 µM | 0.1 to 1 µM | COc1ccc(NC(=N)Nc2nocc2/C(=N/O)Nc2ccc(F)c(Br)c2)cc1 [Embodiment 157, (Z)-1-(4-(N-(3-bromo-4-fluorophenyl)-N′-hydroxyaminoiminomethyl)-isoxazole-3-substituted)-3-(4-methoxyphenyl)guanidine] |
| 0.1 to 1 µM | 0.1 to 1 µM | COc1ccc(NC(=O)Nc2conc2/C(=N/O)Nc2ccc(F)c(Br)c2)cc1 [Embodiment 100, (Z)-1-(4-(N-(3-bromo-4-fluorophenyl)-N′-hydroxyaminoiminomethyl)-isoxazole-3-substituted)-4-(4-methoxyphenyl)urea] |
| 0.1 to 1 µM | 0.1 to 1 µM | O/N=C(\Nc1ccc(F)c(Br)c1)c1nonc1NC(=S)NC1CCCCC1 [Embodiment 121, (Z)-1-(4-(N-(3-bromo-4-fluorophenyl)-N′-hydroxyaminoiminomethyl)-1,2,5-oxadiazole-3-substituted-)-3-(cyclohexyl)thiourea] |
| 0.1 to 1 µM | 0.1 to 1 µM | O=C(Nc1nocc1/C(=N/O)Nc1ccc(F)c(Cl)c1)NC1CCCCC1 [Embodiment 99, (Z)-1-(4-(N-(3-chloro-4-fluorophenyl)-N′-hydroxyaminoiminomethyl)-isoxazole-3-substituted)-3-(cyclohexyl)urea] |
| > 1 µM | > 1 µM | O=C(Nc1cc[nH]c1)Nc1cocc1/C(=N/O)Nc1ccc(F)c(Br)c1 [Embodiment 76, (Z)-1-(4-(N-(3-bromo-4-fluorophenyl)-N′-hydroxyaminoiminomethyl)-furan-3-substituted)-3-(1H-pyrrole-3-substituted)urea] |
| 0.1 to 1 µM | 0.1 to 1 µM | O=C(Nc1ccccc1)Nc1nocc1/C(=N/O)Nc1ccc(F)c(Cl)c1 [Embodiment 98, (Z)-1-(4-(N-(3-chloro-4-fluorophenyl)-N′-hydroxyaminoiminomethyl)-isoxazole-3-substituted)-3-(phenyl)urea] |
| 0.1 to 1 µM | 0.1 to 1 µM | COc1ccc(NC(=S)Nc2nocc2/C(=N/O)Nc2ccc(F)c(Br)c2)cc1 [Embodiment 133, (Z)-1-(4-(N-(3-bromo-4-fluorophenyl)-N′-hydroxyaminoiminomethyl)-isoxazole-3-substituted)-3-(4-methoxyphenyl)thiourea] |
| 0.1 to 1 µM | 0.1 to 1 µM | O=C(Nc1nonc1/C(=N/O)Nc1ccc(F)c(Br)c1)NC1CC1 [Embodiment 32, (Z)-1-(4-(N-(3-bromo-4-fluorophenyl)-N′-hydroxyaminoiminomethyl)-1,2,5-oxadiazole-3-substituted)-3-cyclopropylurea] |
| 0.1 to 1 µM | 0.1 to 1 µM | O=C(Nc1nonc1/C(=N/O)Nc1ccc(F)c(Br)c1)N1CCNCC1 [Embodiment 48, (Z)-1-(4-(N-(3-bromo-4-fluorophenyl)-N′-hydroxyaminoiminomethyl)-1,2,5-oxadiazole-3-substituted)piperazine-1-carbamide] |
| 0.1 to 1 µM | 0.1 to 1 µM | CS(=O)(=O)NCCNC(=O)Nc1cocc1/C(=N/O)Nc1ccc(F)c(Br)c1 [Embodiment 72, (Z)-1-(4-(N-(3-bromo-4-fluorophenyl)-N′-hydroxyaminoiminomethyl)-furan-3-substituted)-3-(2-methamidoethyl)urea] |
| 0.1 to 1 µM | 0.1 to 1 µM | O=C(Nc1nonc1/C(=N/O)Nc1ccc(F)cc1)NC1CCCCC1 [Embodiment 52, (Z)-1-(4-(N-(4-fluorophenyl)-N′-hydroxyaminoiminomethyl)-1,2,5-oxadiazole-3-substituted)-3-cyclohexylurea] |
| 0.1 to 1 µM | 0.1 to 1 µM | N=C(Nc1ccccc1)Nc1nonc1/C(=N/O)Nc1ccc(F)c(Br)c1 [Embodiment 140, (Z)-1-(4-(N-(3-bromo-4-fluorophenyl)-N′-hydroxyaminoiminomethyl)-1,2,5-oxadiazole-3-substituted)-3-phenylguanidine] |
| < 0.001 µM | < 0.001 µM | O=C(NCCCO)Nc1nonc1/C(=N/O)Nc1ccc(F)c(Br)c1 [Embodiment 13, (Z)-1-(4-(N-(3-bromo-4-fluorophenyl)-N′-hydroxyaminoiminomethyl)-1,2,5-oxadiazole-3-substituted)-3-(3-hydroxypropane)urea] |
| 0.1 to 1 µM | 0.1 to 1 µM | CC(C)NC(=O)Nc1nocc1/C(=N/O)Nc1ccc(F)c(Br)c1 [Embodiment 92, (Z)-1-(4-(N-(3-bromo-4-fluorophenyl)-N′-hydroxyaminoiminomethyl)-isoxazole-3-substituted)-3-(isopropyl)urea] |
| 0.1 to 1 µM | 0.1 to 1 µM | N=C(Nc1ccccc1)Nc1cocc1/C(=N/O)Nc1ccc(F)c(Br)c1 [Embodiment 161, (Z)-1-(4-(N-(3-bromo-4-fluorophenyl)-N′-hydroxyaminoiminomethyl)-furan-3-substituted)-3-phenylguanidine] |
| < 0.001 µM | < 0.001 µM | NS(=O)(=O)NCCCNC(=O)Nc1nonc1/C(=N/O)Nc1ccc(F)c(Br)c1 [Embodiment 18, (Z)-1-(4-(N-(3-bromo-4-fluorophenyl)-N′-hydroxyaminoiminomethyl)-1,2,5-oxadiazole-3-substituted)-3-(3-aminosulfonylamino-propyl)urea] |
| < 0.001 µM | < 0.001 µM | NCCCNC(=O)Nc1nonc1/C(=N/O)Nc1ccc(F)c(Br)c1 [Embodiment 14, (Z)-1-(4-(N-(3-bromo-4-fluorophenyl)-N′-hydroxyaminoiminomethyl)-1,2,5-oxadiazole-3-substituted)-3-(3-aminopropane)urea] |
| 0.1 to 1 µM | 0.1 to 1 µM | O=C(NCCO)Nc1cocc1/C(=N/O)Nc1ccc(F)c(Br)c1 [Embodiment 68, (Z)-1-(4-(N-(3-bromo-4-fluorophenyl)-N′-hydroxyaminoiminomethyl)-furan-3-substituted)+3-(2-hydroxyethyl)urea] |
| > 1 µM | > 1 µM | O=C(Nc1nocc1/C(=N/O)Nc1ccc(F)c(Br)c1)NC1CCCC1 [Embodiment 83, (Z)-1-(4-(N-(3-bromo-4-fluorophenyl)-N′-hydroxyaminoiminomethyl)-isoxazole-3-substituted)-3-(cyclopentyl)urea] |
